Consider eight compounds from ChEMBL document CHEMBL4196111, “ROR(GMMA)T Modulating Activity for the Treatment of Cancers” (ACS Med Chem Lett, 2018).

In the test the target is T1, Nuclear receptor ROR-gamma (Mus musculus) (UniProt P51450).
T1 sequence (whole entry): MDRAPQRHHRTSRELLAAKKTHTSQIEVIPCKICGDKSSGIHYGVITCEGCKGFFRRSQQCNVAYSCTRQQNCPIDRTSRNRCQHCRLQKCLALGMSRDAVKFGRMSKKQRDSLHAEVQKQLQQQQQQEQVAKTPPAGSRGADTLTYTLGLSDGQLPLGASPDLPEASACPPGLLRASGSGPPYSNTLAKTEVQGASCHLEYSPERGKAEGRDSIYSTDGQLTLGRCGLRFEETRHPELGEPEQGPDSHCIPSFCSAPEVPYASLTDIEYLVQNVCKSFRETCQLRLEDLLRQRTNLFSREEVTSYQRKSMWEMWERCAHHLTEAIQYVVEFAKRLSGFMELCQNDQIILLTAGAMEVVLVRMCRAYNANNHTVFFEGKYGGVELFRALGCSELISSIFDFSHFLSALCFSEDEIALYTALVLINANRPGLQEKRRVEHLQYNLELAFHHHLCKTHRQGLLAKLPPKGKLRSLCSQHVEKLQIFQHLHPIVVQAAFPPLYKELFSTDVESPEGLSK
Nature of the test: Modulation of RORgammat in mouse Th17 cells assessed as […] IL17A production at 3 uM relative to control. It counts as cell-based.
Turning to `CS(=O)(=O)c1ccc(CNC(=O)c2ccc3c(n2)CCCN3c2cc(C3CC3)nc(C3CC3)c2)c(C(N)=O)c1`, the Activity amounted to 483%.
For the compound `CS(=O)(=O)c1ccc(C(CO)NC(=O)c2ccc3c(n2)CCCN3c2cc(C3CC3)nc(C3CC3)c2)cc1` (stereo not drawn), the Activity is 533%.
Then `CS(=O)(=O)c1ccc(CNC(=O)c2ccc3c(n2)OCCN3c2cc(C3CC3)nc(C3CC3)c2)cc1`, with 373%; and `CS(=O)(=O)c1ccc(CNC(=O)c2ccc3c(c2)OCCC3c2cc(C3CC3)nc(C3CC3)c2)nc1` (stereo not drawn), with 443%; and `CCOC(=O)c1cc(S(=O)(=O)CC)ccc1CNC(=O)c1ccc2c(n1)CCCN2c1cc(C2CC2)nc(C2CC2)c1`, with 572%.
Then `CS(=O)(=O)c1ccc(CNC(=O)c2ccc3c(n2)OCCN3c2cc(C3CC3)nc(C3CC3)c2)c(F)c1`, with 324%; and `CCS(=O)(=O)c1ccc(CNC(=O)c2ccc3c(n2)CCCN3c2cc(C3CC3)nc(C3CC3)c2)nc1`, with 533%; and `CS(=O)(=O)c1ccc(CNC(=O)c2ccc3c(n2)CCCN3c2cc(C3CC3)nc(C3CC3)c2)nc1`, with 452%.
